Measured values from the Kinase Knowledgebase extract (Sharma et al. 2016).

Biological target: CDK2 (UniProt P24941)
Assay: Enzyme Assay

IC50, < 20 µM:
CC(=O)NCCSc1cc(=O)c2c(O)cc(O)c([C@H]3CCN(C)C[C@H]3O)c2o1
Cc1ccc(Sc2cc(=O)c3c(O)cc(O)c(C4CCN(C)CC4O)c3o2)cc1C (configuration not stated)
CN1CCC(c2c(O)cc(O)c3c(=O)cc(SCCO)oc23)C(O)C1 (configuration not stated)
CCSc1cc(=O)c2c(O)cc(O)c([C@H]3CCN(C)C[C@H]3O)c2o1
CN1CC[C@H](c2c(O)cc(O)c3c(=O)cc(Sc4ccccc4)oc23)[C@H](O)C1
CC(=O)NCCSc1cc(=O)c2c(O)cc(O)c(C3CCN(C)CC3O)c2o1 (configuration not stated)
CN1CC[C@H](c2c(O)cc(O)c3c(=O)cc(Sc4ccccc4Cl)oc23)[C@H](O)C1
CCc1ccc(Sc2cc(=O)c3c(O)cc(O)c(C4CCN(C)CC4O)c3o2)cc1 (configuration not stated)
COc1ccc(Sc2cc(=O)c3c(O)cc(O)c(C4CCN(C)CC4O)c3o2)cc1 (configuration not stated)
COc1ccc(CSc2cc(=O)c3c(O)cc(O)c([C@H]4CCN(C)C[C@H]4O)c3o2)cc1
COC(=O)CCSc1cc(=O)c2c(O)cc(O)c([C@H]3CCN(C)C[C@H]3O)c2o1
CN1CC[C@H](c2c(O)cc(O)c3c(=O)cc(SCCO)oc23)[C@H](O)C1
CN1CCC(c2c(O)cc(O)c3c(=O)cc(SCc4ccc(C(C)(C)C)cc4)oc23)C(O)C1 (configuration not stated)
CN1CC[C@H](c2c(O)cc(O)c3c(=O)cc(Oc4ccccc4)oc23)[C@H](O)C1
COc1ccc(Sc2cc(=O)c3c(O)cc(O)c([C@H]4CCN(C)C[C@H]4O)c3o2)cc1
COc1ccc(CSc2cc(=O)c3c(O)cc(O)c(C4CCN(C)CC4O)c3o2)cc1 (configuration not stated)
CCCCSc1cc(=O)c2c(O)cc(O)c([C@H]3CCN(C)C[C@H]3O)c2o1
CN1CCC(c2c(O)cc(O)c3c(=O)cc(Sc4ccc(OC(F)(F)F)cc4)oc23)C(O)C1 (configuration not stated)
CN1CCC(c2c(O)cc(O)c3c(=O)cc(Sc4ccc(C(C)(C)C)cc4)oc23)C(O)C1 (configuration not stated)
CCSc1cc(=O)c2c(O)cc(OC)c([C@H]3CCN(C)C[C@H]3O)c2o1
CN1CC[C@H](c2c(O)cc(O)c3c(=O)cc(SCc4ccccc4)oc23)[C@H](O)C1
CN1CCC(c2c(O)cc(O)c3c(=O)cc(Sc4ccccc4Cl)oc23)C(O)C1 (configuration not stated)
